This is an account of results in PubChem BioAssay AID588524 (Sanford-Burnham Center for Chemical Genomics, 2011).

The target of this test is Apoptotic protease-activating factor 1 (Homo sapiens) (UniProt O14727). Kind of test: Apaf-1 inhibitor potency, dose response, fluorescence, uHTS hits (AID 588524). As to conditions: Apaf-1 apoptosome assay, fluorescence read-out.
Sequence of Apoptotic protease-activating factor 1 (Homo sapiens) (O14727 whole entry, looked up): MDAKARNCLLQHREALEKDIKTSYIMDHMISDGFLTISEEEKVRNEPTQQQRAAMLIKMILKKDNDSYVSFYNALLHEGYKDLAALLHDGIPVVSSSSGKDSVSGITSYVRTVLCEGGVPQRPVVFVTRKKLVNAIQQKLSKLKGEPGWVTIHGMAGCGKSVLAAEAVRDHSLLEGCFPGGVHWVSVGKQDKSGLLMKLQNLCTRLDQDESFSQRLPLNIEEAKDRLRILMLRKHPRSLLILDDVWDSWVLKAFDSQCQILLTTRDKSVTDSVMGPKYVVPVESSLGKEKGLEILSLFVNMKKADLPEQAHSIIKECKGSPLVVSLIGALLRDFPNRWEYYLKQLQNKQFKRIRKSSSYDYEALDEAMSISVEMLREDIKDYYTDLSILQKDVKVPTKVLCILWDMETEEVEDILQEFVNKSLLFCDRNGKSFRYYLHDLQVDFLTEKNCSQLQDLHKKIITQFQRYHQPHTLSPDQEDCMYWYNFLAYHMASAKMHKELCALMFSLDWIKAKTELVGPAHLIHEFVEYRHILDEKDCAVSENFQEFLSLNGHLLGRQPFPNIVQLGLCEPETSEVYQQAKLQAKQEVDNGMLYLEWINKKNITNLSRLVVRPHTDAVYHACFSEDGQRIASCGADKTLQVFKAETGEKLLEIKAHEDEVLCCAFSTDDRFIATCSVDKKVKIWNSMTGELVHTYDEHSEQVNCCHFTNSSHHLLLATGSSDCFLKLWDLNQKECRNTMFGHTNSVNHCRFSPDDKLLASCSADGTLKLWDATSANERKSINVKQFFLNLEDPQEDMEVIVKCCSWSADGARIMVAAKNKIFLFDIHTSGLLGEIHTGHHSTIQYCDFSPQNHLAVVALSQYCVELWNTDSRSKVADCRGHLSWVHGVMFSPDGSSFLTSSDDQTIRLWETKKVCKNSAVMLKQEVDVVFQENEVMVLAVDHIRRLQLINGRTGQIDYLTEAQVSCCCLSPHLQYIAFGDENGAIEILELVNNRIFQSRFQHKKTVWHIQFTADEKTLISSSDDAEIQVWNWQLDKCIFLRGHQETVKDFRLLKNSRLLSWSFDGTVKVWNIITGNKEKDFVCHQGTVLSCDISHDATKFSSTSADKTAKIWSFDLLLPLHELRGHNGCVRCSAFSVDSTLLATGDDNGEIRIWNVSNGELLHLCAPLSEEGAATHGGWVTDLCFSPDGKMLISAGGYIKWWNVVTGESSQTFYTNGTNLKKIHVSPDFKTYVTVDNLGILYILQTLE
Turning to `C#CCOCCOCCOCCNc1nc(N2CCN(C(=O)CCCCCCCCCCNC(=O)Cn3cc(CCCCCN)nn3)CC2)nc(N2CCN(C(=O)CCCCCCCCCCNC(=O)[C@H](CO)n3cc(CCCSC)nn3)CC2)n1`, the IC50 (commonly the concentration at which inhibition is half-maximal) is 24.6 µM.

Take `C#CCOCCOCCOCCNc1nc(N2CCN(C(=O)CCCCCCCCCCNC(=O)[C@H]([C@@H](C)CC)n3cc(CCCCN=C(N)N)nn3)CC2)nc(N2CCN(C(=O)CCCCCCCCCCNC(=O)[C@H](CCCCN)n3cc(C)nn3)CC2)n1`: the IC50 was 21.4 µM. The value for `C#CCOCCOCCOCCNc1nc(N2CCN(C(=O)CCCCCCCCCCNC(=O)[C@H](CCCCN)n3cc(CCO)nn3)CC2)nc(N2CCN(C(=O)CCCCCCCCCCNC(=O)[C@H](CCCCN)n3cc(CCO)nn3)CC2)n1` was 27.1 µM. With `C#CCOCCOCCOCCNc1nc(N2CCN(C(=O)CCCCCCCCCCNC(=O)[C@@H](CCSC)n3cc(CCO)nn3)CC2)nc(N2CCN(C(=O)CCCCCCCCCCNC(=O)[C@H](CO)n3cc(CCCCCN)nn3)CC2)n1` the figure was 40 µM. The value for `C#CCOCCOCCOCCNc1nc(N2CCN(C(=O)CCCCCCCCCCNC(=O)[C@H](CCCCN)n3cc(C)nn3)CC2)nc(N2CCN(C(=O)CCCCCCCCCCNC(=O)[C@H](CCCN=C(N)N)n3cc(C[C@@H](C)CC)nn3)CC2)n1` was 15.3 µM; that for `C#CCOCCOCCOCCNc1nc(N2CCN(C(=O)CCCCCCCCCCNC(=O)Cn3cc(CCCCCN)nn3)CC2)nc(N2CCN(C(=O)CCCCCCCCCCNC(=O)Cn3cc(CCCCCN)nn3)CC2)n1` was 34.9 µM. As for `C#CCOCCOCCOCCNc1nc(N2CCN(C(=O)CCCCCCCCCCNC(=O)[C@H](CO)n3cc(CCCSC)nn3)CC2)nc(N2CCN(C(=O)CCCCCCCCCCNC(=O)[C@H](CCCCN)n3cc(CCO)nn3)CC2)n1`, the IC50 was 36.3 µM. With `CCCCCCCCCCCCCCCC[n+]1ccc(/C=N/O)cc1` the figure was 29.3 µM; with `CNc1ccc2nc3ccccc3[n+](C)c2c1`, 11.5 µM; with `C[n+]1c(-c2ccccc2)c2cc(N)ccc2c2ccc(N)cc21`, 24.5 µM. Turning to `C#CCOCCOCCOCCNc1nc(N2CCN(C(=O)CCCCCCCCCCNC(=O)Cn3cc(CCCCCN)nn3)CC2)nc(N2CCN(C(=O)CCCCCCCCCCNC(=O)[C@H]([C@@H](C)CC)n3cc(CCCCCN)nn3)CC2)n1`, the IC50 was 24.3 µM. With `C#CCOCCOCCOCCNc1nc(N2CCN(C(=O)CCCCCCCCCCNC(=O)Cn3cc(CCCCCN)nn3)CC2)nc(N2CCN(C(=O)CCCCCCCCCCNC(=O)[C@H]([C@@H](C)CC)n3cc(CCCCN=C(N)N)nn3)CC2)n1` the figure was 12.9 µM.
